This note sets out measurements from US11572399B2, “Long-acting GIP peptide analogues” (University of Copenhagen, priority 2017, dated 2023).

The target in series [1] is T1, human GIP receptor (Homo sapiens, UniProt P48546).
T1 construct: host or cells: COS-7, transient transfection (calcium phosphate), cDNA in pCMV-Script
T1 sequence (P48546 22-466): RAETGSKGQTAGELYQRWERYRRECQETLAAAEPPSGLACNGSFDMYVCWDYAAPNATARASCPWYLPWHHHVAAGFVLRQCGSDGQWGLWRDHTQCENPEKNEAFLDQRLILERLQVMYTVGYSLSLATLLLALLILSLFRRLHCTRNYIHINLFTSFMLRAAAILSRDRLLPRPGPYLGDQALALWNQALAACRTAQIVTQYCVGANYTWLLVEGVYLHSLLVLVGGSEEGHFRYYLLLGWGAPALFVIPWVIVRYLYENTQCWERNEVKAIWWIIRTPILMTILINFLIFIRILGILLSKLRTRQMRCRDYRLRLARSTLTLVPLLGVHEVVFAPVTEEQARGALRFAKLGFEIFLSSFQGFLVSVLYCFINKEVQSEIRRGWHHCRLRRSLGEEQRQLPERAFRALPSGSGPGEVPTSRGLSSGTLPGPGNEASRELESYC
Briefly: cAMP accumulation assay, agonism (ligand alone). The format is cell-based. The following applies: COS-7 cells, Table 1; for Emax: COS-7, intrinsic cAMP activity; for EC50: read-out: cAMP agonism nM (EC50).

Series [2] deals with T1, human GIP receptor. The experiment in a line: 125I-human GIP competition binding assay, in the presence and absence of 2% HSA.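 For all read-outs here: nonspecific binding taken as radioligand bound to untransfected cells, IC50 obtained from nonlinear regression fits.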 The following applies: for Binding fold (paired): fold decrease in affinity compared to GIP(3-30)NH2.
The target of series [3] is T1, human GIP receptor. Briefly: cAMP accumulation assay, antagonism of a GIP-mediated cAMP response (50-80% of max). The format is cell-based. The following applies: for cAMP - antagonisme fold (paired): fold vs GIP(3-30)NH2, Table 3b; for IC50: transiently transfected COS-7 cells. As to the method: The day after, the cells were washed twice with Hepes buffered saline (HBS) buffer and incubated with HBS and 1 mM 3-isobutyl-1-methylxanthine (IBMX) for 30 min at 37° C. […] The HitHunter™ cAMP XS assay (DiscoveRx) was carried out according to the manufacturer's instructions.

[4] abbreviates: Table 3b, initial data, read-out: Binding IC50.
[5] abbreviates: heterologous competition binding, transiently transfected COS-7 cells expressing the human GIP receptor, read-out: Binding.
Setting [6] is: Table 1 and text, read-out: cAMP antagonism nM (IC50, antagonistic potency).

Peptide text beside a SMILES is read from it. * marks the point of attachment. C16 diacid = O=C(O)CCCCCCCCCCCCCCC(=O)*; Palmitoyl = CCCCCCCCCCCCCCCC(=O)*

Consider `CCCCCCCCCCCCCCCC(=O)NCCCC[C@H](NC(=O)[C@H](CCC(=O)O)NC(=O)[C@H](CCSC)NC(=O)[C@H](C)NC(=O)[C@@H](NC(=O)[C@H](CO)NC(=O)[C@H](Cc1ccc(O)cc1)NC(=O)[C@H](CC(=O)O)NC(=O)[C@H](CO)NC(=O)[C@@H](NC(=O)[C@H](Cc1ccccc1)NC(=O)[C@H](Cc1c[nH]c2ccccc12)NC(=O)CNC(=O)[C@@H](N)CCC(=O)O)[C@@H](C)CC)[C@@H](C)CC)C(=O)N[C@H](C(=O)N[C@@H](C)C(=O)N[C@@H](CCC(N)=O)C(=O)N[C@@H](CCC(N)=O)C(=O)N[C@@H](CC(=O)O)C(=O)N[C@@H](Cc1ccccc1)C(=O)N[C@H](C(=O)N[C@@H](CC(N)=O)C(=O)N[C@@H](Cc1c[nH]c2ccccc12)C(=O)N[C@@H](CC(C)C)C(=O)N[C@@H](CC(C)C)C(=O)N[C@@H](C)C(=O)N[C@@H](CCC(N)=O)C(=O)N[C@@H](CCCCN)C(N)=O)C(C)C)[C@@H](C)CC` [AT107, [hGIP(3-30)NH2[T5W; D15E; H18A]-C16/16]] (H-EGWFISDYSIAMEK(Palmitoyl)IAQQDFVNWLLAQK-NH2; N-terminus assumed), for which, in series [1], the maximal response (Emax) amounted to 23% and the EC50 came to 1300 nM. Moreover, the IC50 in series [2] (setting [4]) stood at 5220 nM. Also, the “Binding fold (paired)” value in series [2] (Table 3b) was 186 fold. Further, the IC50 in series [2] (setting [5]) was determined as 5220 nM. Further, in series [3], the “cAMP - antagonisme fold (paired)” value came out at 3.1 fold.
The molecule `CCCCCCCCCCCCCC(=O)NCCCC[C@H](NC(=O)[C@H](CC(=O)O)NC(=O)[C@H](CCSC)NC(=O)[C@H](C)NC(=O)[C@@H](NC(=O)[C@H](CO)NC(=O)[C@H](Cc1ccc(O)cc1)NC(=O)[C@H](CC(=O)O)NC(=O)[C@H](CO)NC(=O)[C@@H](NC(=O)[C@H](Cc1ccccc1)NC(=O)[C@@H](NC(=O)CNC(=O)[C@@H](N)CCC(=O)O)[C@@H](C)O)[C@@H](C)CC)[C@@H](C)CC)C(=O)N[C@H](C(=O)N[C@@H](Cc1c[nH]cn1)C(=O)N[C@@H](CCC(N)=O)C(=O)N[C@@H](CCC(N)=O)C(=O)N[C@@H](CC(=O)O)C(=O)N[C@@H](Cc1ccccc1)C(=O)N[C@H](C(=O)N[C@@H](CC(N)=O)C(=O)N[C@@H](Cc1c[nH]c2ccccc12)C(=O)N[C@@H](CC(C)C)C(=O)N[C@@H](CC(C)C)C(=O)N[C@@H](C)C(=O)N[C@@H](CCC(N)=O)C(=O)N[C@@H](CCCCN)C(N)=O)C(C)C)[C@@H](C)CC` [AT111, [hGIP(3-30)NH2—C14/16]] yielded an Emax in series [1] of 0%. The IC50 was 407 nM in series [2] (0.1% casein, no HSA, Table 3b, read-out: Binding logIC50 0.1% casein (converted)); 2090 nM in series [2] (2% HSA, Table 3b, read-out: Binding logIC50 2% HSA (converted)); 261 nM in series [2] (setting [4]); 2090 nM in series [2] (binding in presence of 2% HSA, read-out: logIC50 2% HSA (converted)); 261 nM in series [2] (setting [5]); 25.1 nM in series [3] (given as log IC50 (negative sign), Table 1, read-out: cAMP antagonism log (converted)). Further, the IC50 in series [3] (setting [6]) stood at 22 nM. In addition, the “Fold change HSA (2%)/Casein (0.1%)” value in series [2] (IC50 (plus HSA)/IC50 (minus HSA)) came to 5.1. Further, in series [2] (Table 3b), the “Binding fold (paired)” value is 31 fold. In addition, the “Fold change in affinity, IC50 (plus HSA)/IC50 (minus HSA)” value in series [2] (presence vs absence of 2% HSA, proxy for albumin binding) is 5.1 fold. Further, the “cAMP - antagonisme fold (paired)” value in series [3] is given as 3.3 fold.
Consider `CC[C@H](C)[C@H](NC(=O)[C@H](CO)NC(=O)[C@H](Cc1ccc(O)cc1)NC(=O)[C@H](CC(=O)O)NC(=O)[C@H](CO)NC(=O)[C@@H](NC(=O)[C@H](Cc1ccccc1)NC(=O)[C@@H](NC(=O)CNC(=O)[C@@H](N)CCC(=O)O)[C@@H](C)O)[C@@H](C)CC)C(=O)N[C@@H](C)C(=O)N[C@@H](CCSC)C(=O)N[C@@H](CC(=O)O)C(=O)N[C@@H](CCCCN)C(=O)N[C@@H](CCCCNC(=O)CCCCCCCCCCCCCCC(=O)O)C(=O)N[C@@H](Cc1c[nH]cn1)C(=O)N[C@@H](CCC(N)=O)C(=O)N[C@@H](CCC(N)=O)C(=O)N[C@@H](CC(=O)O)C(=O)N[C@@H](Cc1ccccc1)C(=O)N[C@H](C(=O)N[C@@H](CC(N)=O)C(=O)N[C@@H](Cc1c[nH]c2ccccc12)C(=O)N[C@@H](CC(C)C)C(=O)N[C@@H](CC(C)C)C(=O)N[C@@H](C)C(=O)N[C@@H](CCC(N)=O)C(=O)N[C@@H](CCCCN)C(N)=O)C(C)C` [AT307, [hGIP(3-30)NH2[I17K]-C16diacid/17]] (H-EGTFISDYSIAMDKK(C16 diacid)HQQDFVNWLLAQK-NH2; N-terminus assumed), for which, in series [1], the Emax amounted to 4.9% and the EC50 was determined as 14 nM. The IC50 in series [3] (setting [6]) was 93 nM.
In turn, `CC[C@H](C)[C@H](NC(=O)[C@H](CO)NC(=O)[C@H](Cc1ccc(O)cc1)NC(=O)[C@H](CC(=O)O)NC(=O)[C@H](CO)NC(=O)[C@@H](NC(=O)[C@H](Cc1ccccc1)NC(=O)[C@@H](NC(=O)CNC(=O)[C@@H](N)CCC(=O)O)[C@@H](C)O)[C@@H](C)CC)C(=O)N[C@@H](C)C(=O)N[C@@H](CCSC)C(=O)N[C@@H](CC(=O)O)C(=O)N[C@@H](CCCCN)C(=O)N[C@H](C(=O)N[C@@H](Cc1c[nH]cn1)C(=O)N[C@@H](CCC(N)=O)C(=O)N[C@@H](CCC(N)=O)C(=O)N[C@@H](CCCCNC(=O)CCCCCCCCCCCCCCC(=O)O)C(=O)N[C@@H](Cc1ccccc1)C(=O)N[C@H](C(=O)N[C@@H](CC(N)=O)C(=O)N[C@@H](Cc1c[nH]c2ccccc12)C(=O)N[C@@H](CC(C)C)C(=O)N[C@@H](CC(C)C)C(=O)N[C@@H](C)C(=O)N[C@@H](CCC(N)=O)C(=O)N[C@@H](CCCCN)C(N)=O)C(C)C)[C@@H](C)CC` [AT310, [hGIP(3-30)NH2[D21K]-C16diacid/21]] (H-EGTFISDYSIAMDKIHQQK(C16 diacid)FVNWLLAQK-NH2; N-terminus assumed) registered an Emax in series [1] of 6.2%. For the same molecule, the IC50 in series [3] (setting [6]) came out at 49 nM.
As to `CC[C@H](C)[C@H](NC(=O)[C@H](CO)NC(=O)[C@H](Cc1ccc(O)cc1)NC(=O)[C@H](CC(=O)O)NC(=O)[C@H](CO)NC(=O)[C@@H](NC(=O)[C@H](Cc1ccccc1)NC(=O)[C@@H](NC(=O)CNC(=O)[C@@H](N)CCC(=O)O)[C@@H](C)O)[C@@H](C)CC)C(=O)N[C@@H](C)C(=O)N[C@@H](CCSC)C(=O)N[C@@H](CC(=O)O)C(=O)N[C@@H](CCCCN)C(=O)N[C@H](C(=O)N[C@@H](Cc1c[nH]cn1)C(=O)N[C@@H](CCC(N)=O)C(=O)N[C@@H](CCC(N)=O)C(=O)N[C@@H](CC(=O)O)C(=O)N[C@@H](Cc1ccccc1)C(=O)N[C@H](C(=O)N[C@@H](CC(N)=O)C(=O)N[C@@H](Cc1c[nH]c2ccccc12)C(=O)N[C@@H](CC(C)C)C(=O)N[C@@H](CC(C)C)C(=O)N[C@@H](C)C(=O)N[C@@H](CCCCNC(=O)CCCCCCCCCCCCCCC(=O)O)C(=O)N[C@@H](CCCCN)C(N)=O)C(C)C)[C@@H](C)CC` [AT318, [hGIP(3-30)NH2[Q29K]-C16diacid/29]] (H-EGTFISDYSIAMDKIHQQDFVNWLLAK(C16 diacid)K-NH2; N-terminus assumed), in series [1], the Emax amounted to 10.8% and the EC50 was found to be 131 nM. Further, the IC50 in series [3] (setting [6]) was determined as 224 nM.
As for `CC[C@H](C)[C@H](NC(=O)[C@H](CO)NC(=O)[C@H](Cc1ccc(O)cc1)NC(=O)[C@H](CC(=O)O)NC(=O)[C@H](CO)NC(=O)[C@@H](NC(=O)[C@H](Cc1ccccc1)NC(=O)[C@@H](NC(=O)CNC(=O)[C@@H](N)CCC(=O)O)[C@@H](C)O)[C@@H](C)CC)C(=O)N[C@@H](C)C(=O)N[C@@H](CCSC)C(=O)N[C@@H](CC(=O)O)C(=O)N[C@@H](CCCCNC(=O)CCCCCCCCCCCCCCC(=O)O)C(=O)N[C@H](C(=O)N[C@@H](Cc1c[nH]cn1)C(=O)N[C@@H](CCC(N)=O)C(=O)N[C@@H](CCC(N)=O)C(=O)N[C@@H](CC(=O)O)C(=O)N[C@@H](Cc1ccccc1)C(=O)N[C@H](C(=O)N[C@@H](CC(N)=O)C(=O)N[C@@H](Cc1c[nH]c2ccccc12)C(=O)N[C@@H](CC(C)C)C(=O)N[C@@H](CC(C)C)C(=O)N[C@@H](C)C(=O)N[C@@H](CCC(N)=O)C(=O)N[C@@H](CCCCN)C(N)=O)C(C)C)[C@@H](C)CC` [AT370, [hGIP(3-30)NH2—C16diacid/16]], in series [1] (intrinsic cAMP activity), the “cAMP agonism Emax” value is “no ag”. Moreover, the IC50 in series [3] (setting [6]) was found to be 25 nM.
